{"source": "patent US20260124184A1", "about": "“ONCE DAILY ALDOSTERONE SYNTHASE INHIBITOR (R)-(+)-5-(P-CYANOPHENYL)-5,6,7,8-TETRAHYDROIMIDAZO[L,5-A]PYRIDINE” (priority 2022, published 2026)", "test_system": "patients with primary aldosteronism", "description": "A double-blind, randomized, Phase 2 trial was conducted between November 2019 and June 2022 at 11 centres in Italy, Switzerland and the Netherlands (NCT04007406). […] Patients requiring fixed-dose antihypertensive therapy continued treatment throughout the study; steroid therapies, β-adrenergic and renin-angiotensin-aldosterone system blockers were not permitted. At 14-day intervals, office blood pressures were recorded and blood samples were taken for measurement of steroid and peptide hormones and electrolytes at a central laboratory.", "key": {"[1]": {"conditions": "4 mg once daily, n=10, Day 1 (baseline)"}, "[2]": {"conditions": "4 mg once daily, n=10, Day 70 (after placebo withdrawal)"}, "[3]": {"conditions": "8 mg once daily, n=11, Day 1 (baseline)"}, "[4]": {"conditions": "8 mg once daily, n=11, Day 70 (after placebo withdrawal)"}}, "note": "Where two headings read alike, the source gives them in different places.", "data": [{"substance": "(R)-(+)-5-(p-cyanophenyl)-5,6,7,8-tetrahydroimidazolium[1,5-a]pyridine dihydrogen phosphate [dexfadrostat phosphate]", "values": [{"measurement": "plasma potassium, mean", "setting": "[1]", "result": 3.36, "unit": "nmol/L"}, {"measurement": "plasma potassium, median", "setting": "[1]", "result": 3.35, "unit": "nmol/L"}, {"measurement": "plasma potassium, mean", "setting": "4 mg once daily, n=10, Day 14", "result": 4.27, "unit": "nmol/L"}, {"measurement": "plasma potassium, median", "setting": "4 mg once daily, n=10, Day 14", "result": 4.35, "unit": "nmol/L"}, {"measurement": "plasma potassium, mean", "setting": "4 mg once daily, n=10, Day 28", "result": 3.85, "unit": "nmol/L"}, {"measurement": "plasma potassium, median", "setting": "4 mg once daily, n=10, Day 28", "result": 3.85, "unit": "nmol/L"}, {"measurement": "plasma potassium, mean", "setting": "4 mg once daily, n=10, Day 42", "result": 4.07, "unit": "nmol/L"}, {"measurement": "plasma potassium, median", "setting": "4 mg once daily, n=10, Day 42", "result": 4.15, "unit": "nmol/L"}, {"measurement": "plasma potassium, mean", "setting": "4 mg once daily, n=10, Day 56", "result": 4.10, "unit": "nmol/L"}, {"measurement": "plasma potassium, median", "setting": "4 mg once daily, n=10, Day 56", "result": 4.20, "unit": "nmol/L"}, {"measurement": "plasma potassium, mean", "setting": "[2]", "result": 3.58, "unit": "nmol/L"}, {"measurement": "plasma potassium, median", "setting": "[2]", "result": 3.60, "unit": "nmol/L"}, {"measurement": "plasma potassium, mean", "setting": "[3]", "result": 3.55, "unit": "nmol/L"}, {"measurement": "plasma potassium, median", "setting": "[3]", "result": 3.50, "unit": "nmol/L"}, {"measurement": "plasma potassium, mean", "setting": "8 mg once daily, n=11, Day 14", "result": 4.32, "unit": "nmol/L"}, {"measurement": "plasma potassium, median", "setting": "8 mg once daily, n=11, Day 14", "result": 4.30, "unit": "nmol/L"}, {"measurement": "plasma potassium, mean", "setting": "8 mg once daily, n=11, Day 28", "result": 4.04, "unit": "nmol/L"}, {"measurement": "plasma potassium, median", "setting": "8 mg once daily, n=11, Day 28", "result": 4.00, "unit": "nmol/L"}, {"measurement": "plasma potassium, mean", "setting": "8 mg once daily, n=11, Day 42", "result": 3.99, "unit": "nmol/L"}, {"measurement": "plasma potassium, median", "setting": "8 mg once daily, n=11, Day 42", "result": 3.90, "unit": "nmol/L"}, {"measurement": "plasma potassium, mean", "setting": "8 mg once daily, n=11, Day 56", "result": 4.10, "unit": "nmol/L"}, {"measurement": "plasma potassium, median", "setting": "8 mg once daily, n=11, Day 56", "result": 4.10, "unit": "nmol/L"}, {"measurement": "plasma potassium, mean", "setting": "[4]", "result": 3.76, "unit": "nmol/L"}, {"measurement": "plasma potassium, median", "setting": "[4]", "result": 3.80, "unit": "nmol/L"}, {"measurement": "plasma potassium upon drug withdrawal", "setting": "Day 70, after 14-day placebo withdrawal", "result": "potassium values returned towards baseline levels"}, {"measurement": "plasma potassium concentration, mean", "setting": "baseline potassium <3.6 mmol/L, 4 mg QD, Day 1 (baseline)", "result": 3.1, "unit": "mmol/L"}, {"measurement": "plasma potassium concentration, mean", "setting": "baseline potassium <3.6 mmol/L, 4 mg QD, Day 14", "result": 4.1, "unit": "mmol/L"}, {"measurement": "plasma potassium concentration, mean", "setting": "baseline potassium <3.6 mmol/L, 4 mg QD, Day 28", "result": 3.8, "unit": "mmol/L"}, {"measurement": "plasma potassium concentration, mean", "setting": "baseline potassium <3.6 mmol/L, 4 mg QD, Day 42", "result": 3.9, "unit": "mmol/L"}, {"measurement": "plasma potassium concentration, mean", "setting": "baseline potassium <3.6 mmol/L, 4 mg QD, Day 56", "result": 4.0, "unit": "mmol/L"}, {"measurement": "plasma potassium concentration, mean", "setting": "baseline potassium <3.6 mmol/L, 4 mg QD, Day 70 (placebo withdrawal)", "result": 3.3, "unit": "mmol/L"}, {"measurement": "plasma potassium concentration, mean", "setting": "baseline potassium <3.6 mmol/L, 8 mg QD, Day 1 (baseline)", "result": 3.3, "unit": "mmol/L"}, {"measurement": "plasma potassium concentration, mean", "setting": "baseline potassium <3.6 mmol/L, 8 mg QD, Day 14", "result": 4.2, "unit": "mmol/L"}, {"measurement": "plasma potassium concentration, mean", "setting": "baseline potassium <3.6 mmol/L, 8 mg QD, Day 28", "result": 3.9, "unit": "mmol/L"}, {"measurement": "plasma potassium concentration, mean", "setting": "baseline potassium <3.6 mmol/L, 8 mg QD, Day 42", "result": 4.0, "unit": "mmol/L"}, {"measurement": "plasma potassium concentration, mean", "setting": "baseline potassium <3.6 mmol/L, 8 mg QD, Day 56", "result": 4.0, "unit": "mmol/L"}, {"measurement": "plasma potassium concentration, mean", "setting": "baseline potassium <3.6 mmol/L, 8 mg QD, Day 70 (placebo withdrawal)", "result": 3.7, "unit": "mmol/L"}, {"measurement": "plasma potassium concentration, mean", "setting": "baseline potassium <3.6 mmol/L, 12 mg QD, Day 1 (baseline)", "result": 3.3, "unit": "mmol/L"}, {"measurement": "plasma potassium concentration, mean", "setting": "baseline potassium <3.6 mmol/L, 12 mg QD, Day 14", "result": 3.9, "unit": "mmol/L"}, {"measurement": "plasma potassium concentration, mean", "setting": "baseline potassium <3.6 mmol/L, 12 mg QD, Day 28", "result": 4.0, "unit": "mmol/L"}, {"measurement": "plasma potassium concentration, mean", "setting": "baseline potassium <3.6 mmol/L, 12 mg QD, Day 42", "result": 4.1, "unit": "mmol/L"}, {"measurement": "plasma potassium concentration, mean", "setting": "baseline potassium <3.6 mmol/L, 12 mg QD, Day 56", "result": 3.8, "unit": "mmol/L"}, {"measurement": "plasma potassium concentration, mean", "setting": "baseline potassium <3.6 mmol/L, 12 mg QD, Day 70 (placebo withdrawal)", "result": 3.7, "unit": "mmol/L"}, {"measurement": "plasma potassium concentration, mean", "setting": "baseline potassium ≤3.0 mmol/L, all doses QD, Day 1 (baseline)", "result": 2.9, "unit": "mmol/L"}, {"measurement": "plasma potassium concentration, mean", "setting": "baseline potassium ≤3.0 mmol/L, all doses QD, Day 14", "result": 3.9, "unit": "mmol/L"}, {"measurement": "plasma potassium concentration, mean", "setting": "baseline potassium ≤3.0 mmol/L, all doses QD, Day 28", "result": 3.9, "unit": "mmol/L"}, {"measurement": "plasma potassium concentration, mean", "setting": "baseline potassium ≤3.0 mmol/L, all doses QD, Day 42", "result": 4.0, "unit": "mmol/L"}, {"measurement": "plasma potassium concentration, mean", "setting": "baseline potassium ≤3.0 mmol/L, all doses QD, Day 56", "result": 3.9, "unit": "mmol/L"}, {"measurement": "plasma potassium concentration, mean", "setting": "baseline potassium ≤3.0 mmol/L, all doses QD, Day 70 (placebo withdrawal)", "result": 3.5, "unit": "mmol/L"}, {"measurement": "plasma potassium concentration, mean", "setting": "baseline potassium ≥3.6 mmol/L, 4 mg QD, Day 1 (baseline)", "result": 3.8, "unit": "mmol/L"}, {"measurement": "plasma potassium concentration, mean", "setting": "baseline potassium ≥3.6 mmol/L, 4 mg QD, Day 14", "result": 4.6, "unit": "mmol/L"}, {"measurement": "plasma potassium concentration, mean", "setting": "baseline potassium ≥3.6 mmol/L, 4 mg QD, Day 28", "result": 4.0, "unit": "mmol/L"}, {"measurement": "plasma potassium concentration, mean", "setting": "baseline potassium ≥3.6 mmol/L, 4 mg QD, Day 42", "result": 4.3, "unit": "mmol/L"}, {"measurement": "plasma potassium concentration, mean", "setting": "baseline potassium ≥3.6 mmol/L, 4 mg QD, Day 56", "result": 4.3, "unit": "mmol/L"}, {"measurement": "plasma potassium concentration, mean", "setting": "baseline potassium ≥3.6 mmol/L, 4 mg QD, Day 70 (placebo withdrawal)", "result": 4.0, "unit": "mmol/L"}, {"measurement": "plasma potassium concentration, mean", "setting": "baseline potassium ≥3.6 mmol/L, 8 mg QD, Day 1 (baseline)", "result": 3.8, "unit": "mmol/L"}, {"measurement": "plasma potassium concentration, mean", "setting": "baseline potassium ≥3.6 mmol/L, 8 mg QD, Day 14", "result": 4.3, "unit": "mmol/L"}, {"measurement": "plasma potassium concentration, mean", "setting": "baseline potassium ≥3.6 mmol/L, 8 mg QD, Day 28", "result": 4.1, "unit": "mmol/L"}, {"measurement": "plasma potassium concentration, mean", "setting": "baseline potassium ≥3.6 mmol/L, 8 mg QD, Day 42", "result": 3.9, "unit": "mmol/L"}, {"measurement": "plasma potassium concentration, mean", "setting": "baseline potassium ≥3.6 mmol/L, 8 mg QD, Day 56", "result": 4.1, "unit": "mmol/L"}, {"measurement": "plasma potassium concentration, mean", "setting": "baseline potassium ≥3.6 mmol/L, 8 mg QD, Day 70 (placebo withdrawal)", "result": 3.9, "unit": "mmol/L"}, {"measurement": "plasma potassium concentration, mean", "setting": "baseline potassium ≥3.6 mmol/L, 12 mg QD, Day 1 (baseline)", "result": 3.9, "unit": "mmol/L"}, {"measurement": "plasma potassium concentration, mean", "setting": "baseline potassium ≥3.6 mmol/L, 12 mg QD, Day 14", "result": 4.0, "unit": "mmol/L"}, {"measurement": "plasma potassium concentration, mean", "setting": "baseline potassium ≥3.6 mmol/L, 12 mg QD, Day 28", "result": 4.1, "unit": "mmol/L"}, {"measurement": "plasma potassium concentration, mean", "setting": "baseline potassium ≥3.6 mmol/L, 12 mg QD, Day 42", "result": 4.0, "unit": "mmol/L"}, {"measurement": "plasma potassium concentration, mean", "setting": "baseline potassium ≥3.6 mmol/L, 12 mg QD, Day 56", "result": 3.9, "unit": "mmol/L"}, {"measurement": "plasma potassium concentration, mean", "setting": "baseline potassium ≥3.6 mmol/L, 12 mg QD, Day 70 (placebo withdrawal)", "result": 3.7, "unit": "mmol/L"}]}]}
